In ChEMBL document CHEMBL3091402, “Identification of clinical candidates from the benzazepine class of histamine H3 receptor antagonists” (Bioorg Med Chem Lett, 2013):

Tests used:
[1] = Ratio of drug level in brain to blood in rat at 3 mg/kg, po; type: ADME, organism-based; set-up: dose 3 mg/kg, route oral
Blood = assay: Drug level in rat blood at 3 mg/kg, po; type: ADME, organism-based; set-up: dose 3 mg/kg, route oral; details: in vivo, read-out: Drug uptake
Rattus norvegicus [2] = assay: Ex vivo binding affinity to histamine H3 receptor in rat cerebral cortex using [3H]-R-alpha-ethylhistamine at 3 mg/kg, po after 3 hrs by HPLC analysis; type: functional
Rattus norvegicus [3] = assay: Ex vivo binding affinity to histamine H3 receptor in po dosed rat cerebral cortex using [3H]-R-alpha-ethylhistamine after 2 hrs by HPLC analysis; type: functional
Histamine H3 receptor [4] = target: T1, Histamine H3 receptor (Rattus norvegicus, UniProt Q9QYN8); assay: Displacement of [3H]-R-alpha-ethylhistamine from histamine H3 receptor in rat cerebral cortical tissue membranes after 45 mins by liquid scintillation spectrometry
Histamine H3 receptor [5] = target: Histamine H3 receptor (Homo sapiens, UniProt Q9Y5N1); assay: Antagonist activity at human histamine H3 receptor expressed in CHOK1 cells assessed as inhibition of GTPgammaS binding; type: functional, cell-based, CHO-K1
Rattus norvegicus [6] = assay: Reversal of RAMH-induced dipsogenia in po dosed Lister Hooded rat treated 2 hrs before RAMH challenge measured after 1 hr; type: functional
Rattus norvegicus [7] = assay: Reversal of RAMH-induced dipsogenia in Lister Hooded rat at 3 mg/kg, po treated 2 hrs before RAMH challenge measured after 1 hr; type: functional
Liver microsome [8] = assay: Intrinsic clearance in rat liver microsomes; type: ADME
Rattus norvegicus [9] = assay: Ex vivo binding affinity to histamine H3 receptor in rat cerebral cortex using [3H]-R-alpha-ethylhistamine at 0.3 mg/kg, po after 3 hrs by HPLC analysis; type: functional
Liver microsome [10] = assay: Intrinsic clearance in human liver microsomes; type: ADME
[11] = Time dependent inhibition of CYP450 (unknown origin); type: ADME, Homo sapiens
hERG (KCNH2) = hERG (KCNH2) (Homo sapiens, UniProt Q12809); assay: Inhibition of human ERG at 10 uM by patch clamp experiment
Histamine H4 receptor = Histamine H4 receptor (Homo sapiens, UniProt Q9H3N8); assay: Binding affinity to human histamine H4 receptor
Histamine H1 receptor = Histamine H1 receptor (Homo sapiens, UniProt P35367); assay: Binding affinity to human histamine H1 receptor
Histamine H2 receptor = Histamine H2 receptor (Homo sapiens, UniProt P25021); assay: Binding affinity to human histamine H2 receptor
Histamine H3 receptor [12] = target: T1, Histamine H3 receptor; assay: Displacement of [3H]-R-alpha-ethylhistamine from rat histamine H3 receptor expressed in HEK293 cells after 45 mins by liquid scintillation spectrometry; type: cell-based

Chain of Histamine H3 receptor (Homo sapiens, UniProt Q9Y5N1) (Q9Y5N1 whole entry): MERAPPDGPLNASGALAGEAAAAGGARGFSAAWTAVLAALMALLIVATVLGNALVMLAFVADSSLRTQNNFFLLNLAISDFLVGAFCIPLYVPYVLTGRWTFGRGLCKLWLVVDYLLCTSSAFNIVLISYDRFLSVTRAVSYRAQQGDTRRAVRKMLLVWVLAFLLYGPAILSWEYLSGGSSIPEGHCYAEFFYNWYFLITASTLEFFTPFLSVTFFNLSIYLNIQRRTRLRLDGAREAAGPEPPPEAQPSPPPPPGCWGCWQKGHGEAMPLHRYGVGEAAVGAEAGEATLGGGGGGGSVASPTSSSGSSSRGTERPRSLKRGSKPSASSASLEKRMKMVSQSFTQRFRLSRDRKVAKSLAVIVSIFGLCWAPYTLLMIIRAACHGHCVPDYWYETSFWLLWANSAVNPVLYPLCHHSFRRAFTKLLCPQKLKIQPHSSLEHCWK
T1 sequence (Q9QYN8 whole entry): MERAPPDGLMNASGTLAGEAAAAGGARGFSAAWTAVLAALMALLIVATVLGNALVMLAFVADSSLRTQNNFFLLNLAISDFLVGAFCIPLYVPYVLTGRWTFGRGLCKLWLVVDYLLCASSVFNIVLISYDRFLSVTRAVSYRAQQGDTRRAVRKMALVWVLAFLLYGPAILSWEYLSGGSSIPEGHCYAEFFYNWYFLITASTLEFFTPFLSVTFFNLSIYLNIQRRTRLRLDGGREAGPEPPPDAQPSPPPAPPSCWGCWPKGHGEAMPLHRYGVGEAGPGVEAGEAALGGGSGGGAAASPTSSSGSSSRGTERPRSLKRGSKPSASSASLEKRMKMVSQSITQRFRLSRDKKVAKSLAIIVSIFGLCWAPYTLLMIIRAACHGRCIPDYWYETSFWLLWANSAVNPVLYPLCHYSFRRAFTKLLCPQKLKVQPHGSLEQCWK
Chain of hERG (KCNH2) (Q12809 whole entry): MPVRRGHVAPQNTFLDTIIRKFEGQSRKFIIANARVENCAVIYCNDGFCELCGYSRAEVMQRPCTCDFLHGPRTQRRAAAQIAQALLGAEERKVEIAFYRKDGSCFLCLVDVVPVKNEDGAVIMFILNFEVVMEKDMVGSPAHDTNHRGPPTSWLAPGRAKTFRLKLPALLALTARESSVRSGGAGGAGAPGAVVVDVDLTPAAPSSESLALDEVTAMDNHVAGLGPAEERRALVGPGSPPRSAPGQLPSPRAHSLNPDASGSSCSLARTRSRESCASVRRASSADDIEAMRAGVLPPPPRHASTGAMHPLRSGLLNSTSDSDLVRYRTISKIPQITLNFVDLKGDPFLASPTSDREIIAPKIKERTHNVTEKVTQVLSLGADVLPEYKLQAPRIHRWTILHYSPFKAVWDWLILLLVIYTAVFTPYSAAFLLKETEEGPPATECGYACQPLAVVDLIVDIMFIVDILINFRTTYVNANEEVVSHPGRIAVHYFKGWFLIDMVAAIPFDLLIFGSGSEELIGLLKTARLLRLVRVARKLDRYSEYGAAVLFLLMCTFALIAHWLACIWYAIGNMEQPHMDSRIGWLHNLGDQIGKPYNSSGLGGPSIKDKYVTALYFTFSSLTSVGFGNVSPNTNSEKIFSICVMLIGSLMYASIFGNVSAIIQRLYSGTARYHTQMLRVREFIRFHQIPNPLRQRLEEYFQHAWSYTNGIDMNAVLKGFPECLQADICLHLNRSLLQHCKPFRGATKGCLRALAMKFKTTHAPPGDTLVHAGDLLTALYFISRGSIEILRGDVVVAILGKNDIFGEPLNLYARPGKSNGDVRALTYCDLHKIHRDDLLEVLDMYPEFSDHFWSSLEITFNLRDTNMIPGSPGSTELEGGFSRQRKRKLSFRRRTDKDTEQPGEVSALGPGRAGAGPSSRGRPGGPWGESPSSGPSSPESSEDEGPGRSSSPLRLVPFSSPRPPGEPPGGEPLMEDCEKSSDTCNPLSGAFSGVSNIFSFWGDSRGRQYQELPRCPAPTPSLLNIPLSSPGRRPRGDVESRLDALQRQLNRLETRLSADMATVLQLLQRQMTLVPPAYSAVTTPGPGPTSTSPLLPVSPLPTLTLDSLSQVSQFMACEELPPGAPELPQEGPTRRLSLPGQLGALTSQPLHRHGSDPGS
Chain of Histamine H1 receptor (P35367 whole entry): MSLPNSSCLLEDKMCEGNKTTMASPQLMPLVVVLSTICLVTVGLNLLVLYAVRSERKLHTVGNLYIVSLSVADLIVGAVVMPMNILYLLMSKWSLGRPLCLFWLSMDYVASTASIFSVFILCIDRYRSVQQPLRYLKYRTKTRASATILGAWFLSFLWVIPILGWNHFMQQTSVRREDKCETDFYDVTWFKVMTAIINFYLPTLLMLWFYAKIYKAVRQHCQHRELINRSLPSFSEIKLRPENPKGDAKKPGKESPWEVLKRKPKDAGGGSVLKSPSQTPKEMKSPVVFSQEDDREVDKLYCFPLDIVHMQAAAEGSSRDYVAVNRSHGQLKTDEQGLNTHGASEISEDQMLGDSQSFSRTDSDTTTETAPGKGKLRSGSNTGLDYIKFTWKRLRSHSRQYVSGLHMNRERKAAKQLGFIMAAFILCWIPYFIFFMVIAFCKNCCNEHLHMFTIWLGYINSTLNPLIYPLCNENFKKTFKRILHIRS
Chain of Histamine H2 receptor (P25021 whole entry): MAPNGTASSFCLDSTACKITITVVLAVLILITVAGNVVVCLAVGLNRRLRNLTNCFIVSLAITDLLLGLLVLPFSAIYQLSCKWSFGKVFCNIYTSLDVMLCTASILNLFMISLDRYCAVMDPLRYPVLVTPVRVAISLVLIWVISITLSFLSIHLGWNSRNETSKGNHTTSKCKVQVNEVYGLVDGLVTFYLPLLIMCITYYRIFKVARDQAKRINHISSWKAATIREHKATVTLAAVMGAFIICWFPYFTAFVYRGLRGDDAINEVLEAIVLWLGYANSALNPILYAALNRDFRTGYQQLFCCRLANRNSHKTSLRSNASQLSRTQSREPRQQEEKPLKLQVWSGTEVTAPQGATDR

Row | concentration (Blood) [nM] | Ki (Histamine H3 receptor [4]) [nM] | Ki (Histamine H3 receptor [5]) [nM] | Compound | Activity (Rattus norvegicus [2]) [%] | ED50 (Rattus norvegicus [3]) [mg/kg] | also measured
1 | 1200 | 1 | 0.2 | CC(=O)Nc1ccc(Oc2ccc3c(c2)CCN(C2CCC2)CC3)nc1 | 89 | 0.32 | Kp [1]: 0.8
2 |  | 3.98 | 0.2 | Cc1nc(Oc2ccc3c(c2)CCN(C2CCC2)CC3)ccc1C#N | 18 |  | 
3 | 700 | 7.94 | 1.26 | CNC(=O)c1ccc(Oc2ccc3c(c2)CCN(C2CCC2)CC3)nn1 | 79 | 0.85 | ED50 (Rattus norvegicus [6]): 0.33 mg/kg; Kp [1]: 2.8
4 |  |  | 2.51 | c1cncc(Oc2ccc3c(c2)CCN(C2CCC2)CC3)c1 |  |  | 
5 |  |  |  | O=C(N1CCOCC1)N1CCC(Oc2ccc3c(c2)CCN(C2CCC2)CC3)CC1 | 43 | 2 | Activity (Rattus norvegicus [7]): 100%
6 | 2700 | 0.501 | 0.158 | Cc1nnc(-c2ccc(Oc3ccc4c(c3)CCN(C3CCC3)CC4)nc2)o1 | 84 | 0.42 | ED50 (Rattus norvegicus [6]): 0.05 mg/kg; Kp [1]: 2.8
7 |  | 1 | 0.1 | CN1CCN(c2ccc(Oc3ccc4c(c3)CCN(C3CCC3)CC4)nc2)C1=O | 81 | 1.9 | 
8 |  | 0.631 | 0.126 | CC(C)NC(=O)c1ccc(Oc2ccc3c(c2)CCN(C2CCC2)CC3)nc1 |  |  | CLH (Liver microsome [8]): < 3 mL/min/g; Activity (Rattus norvegicus [9]): 19%
9 |  | 2.51 | 0.501 | Cc1noc(C)c1-c1ccc(Oc2ccc3c(c2)CCN(C2CCC2)CC3)nc1 | 48 |  | 
10 |  | 1.58 | 0.2 | O=C1C[C@@H](O)CN1c1ccc(Oc2ccc3c(c2)CCN(C2CCC2)CC3)nc1 | 56 |  | 
11 |  | 3.16 | 0.501 | c1cnn(-c2ccc(Oc3ccc4c(c3)CCN(C3CCC3)CC4)nc2)c1 | 73 |  | 
12 | 10 | 0.631 | 0.251 | O=C(c1ccc(Oc2ccc3c(c2)CCN(C2CCC2)CC3)nc1)N1CCCC1 | 65 |  | CLH (Liver microsome [8]): < 3 mL/min/g; Activity (Rattus norvegicus [7]): 78%
13 | 1120 | 0.832 |  | CNC(=O)c1cnc(Oc2ccc3c(c2)CCN(C2CCC2)CC3)cn1 | 82 | 0.04 | CLH (Liver microsome [10]): 1.2 mL/min/g; IC50 [11]: > 10000 nM; inhibition at 10 µM (hERG (KCNH2)): < 10%; Ki (Histamine H4 receptor): > 3160 nM; Ki (Histamine H1 receptor): 1580 nM; Ki (Histamine H2 receptor): > 3160 nM; Ki (Histamine H3 receptor [12]): 1.12 nM; CLH (Liver microsome [8]): 1.4 mL/min/g; ED50 (Rattus norvegicus [6]): 0.02 mg/kg
14 | 540 | 5.01 | 0.501 | CNC(=O)c1ccc(Oc2ccc3c(c2)CCN(C2CCC2)CC3)cc1 | 68 |  | Kp [1]: 2.5
15 |  | 0.631 | 0.1 | CC(=O)c1ccc(Oc2ccc3c(c2)CCN(C2CCC2)CC3)cn1 |  |  | Activity (Rattus norvegicus [9]): 66%
16 |  | 0.794 | 0.158 | O=C1OCCN1c1ccc(Oc2ccc3c(c2)CCN(C2CCC2)CC3)nc1 |  |  | Activity (Rattus norvegicus [9]): 44%
